Patent US20170066717A1, “NEW PHENYLAZETIDINECARBOXYLATE OR -CARBOXAMIDE COMPOUNDS” (INVENTIVA, priority 2014, published 2017)

How the values were obtained:
NURR-1/RXRα = target: T1, NURR-1/RXRα (Homo sapiens, UniProt P19793); test: Transactivation test, NURR-1-Gal4/RXRα, luciferase reporter in Cos-7 cells; type: cell-based; details: for Emax: COS-7, induction level relative to reference XCT0135908 at 2×10^−5 M (=100%), read-out: hNurr1_RXRaFL Emax (%); for EC50: Cos-7 cells, NURR-1-Gal4/RXRα, luciferase reporter, read-out: hNurr1_RXRaFL EC50
T1 construct: expressed in transfected cells; host or cells: Cos-7 cells

[1] = Brain penetration in rats after intravenous administration; type: in vivo; details: rat; for Kp at 4 h: male, Wistar, intravenous, 4 mg/kg, ratio of Cmax brain to Cmax plasma after the 4 hours of infusion, rats, read-out: Kp (partition coefficient between the brain and the plasma); for Cmax at 4 h: male Wistar rats, 4 mg/kg iv infusion into the jugular vein for 4 hours, plasma at end of infusion
Method: (§1) Three series of in vivo tests were carried out with compounds representative of the invention, for the purpose of determining their pharmacokinetic plasma profile and their brain penetration.
2. Study of the Brain Penetration in Rats After Intravenous Administration
Male Wistar rats (250-300 g) originating from the establishment Janvier, Le Genest-St-Isle, France were used for this study (4 rats per study). The animals were fed with standard feed for rodents (Purina Mills, St. Louis, Mo.), placed in cages and subjected to light/darkness cycles of 12 h/12 h, the room temperature being maintained at 22±2° C. and the humidity level at 55±10%. The rats were not deprived food before the administration. Water was provided at will throughout the study.
The test compound was administered intravenously at 4 mg/kg by infusion into the jugular vein for 4 hours. For the intravenous administration, the animals were infused with 12 mL/kg of a solution of the test compound, prepared in 2% Cremophor EL/0.9% NaCl.
The animals were sacrificed under anesthesia after 4 hours of infusion. The blood and the brain were collected from each sacrificed animal 0.5 mL of blood collected in 1.5 mL tubes containing 20 μL of evaporated anticoagulant (solution of sodium heparinate at 1000 IU/mL) was centrifuged at 4500 g for 3 min in order to obtain approximately 200 μL of plasma. The plasma was divided up into 2 aliquots of 70 μL minimum, which were stored at −20° C. until they were treated by protein precipitation and then analysis by liquid chromatography coupled to tandem mass spectrometry (LC-MS/MS) in order to quantify the compound tested.
The brains were immersed in liquid nitrogen directly after they were removed, then stored at −20° C. for analysis. The brains were then ground in the presence of an aqueous/organic solvent mixture in order to obtain a homogenate. These homogenates were then centrifuged and the compound tested was extracted from the supernatant obtained, by liquid-liquid extraction, and then quantified by LC-MS/MS.
The brain penetration in the rats is represented by the Kp, which is the partition coefficient between the brain and the plasma. It is calculated by the ratio of the concentration measured in the brain (Cmax brain) and the plasma (Cmax plasma) after the 4 hours of infusion.

[2] = tested on: dopaminergic neurons of primary culture of rat embryo mesencephalon treated with MPP+; test: Neuroprotection in primary culture of rat embryo mesencephalon treated with MPP+ (count of tyrosine hydroxylase expressing cells); type: cell-based; details: recombinant human BDNF 10 ng/mL = 100%, 2 days with MPP+
Method: Another in vitro test was carried out with the compounds according to the invention, for the purpose of verifying that the molecules indeed have the expected neuroprotective effect in vitro.
The compounds were tested in a model of primary culture of rat embryo mesencephalon treated with 1-methyl-4-phenylpyridinium (MPP+), which is the active metabolite of 1-methyl-4-phenyl-1,2,3,6-tetrahydropyridine (MPTP). MPP+ enters into dopananergic neurons via the dopamine transporter and causes the death of these dopaminergic neurons. The following protocol was used.
Gestating female rats (15 days of gestation) were euthanized and the rat embryos were removed. The mesencephalons were removed. The tissue was then dissociated mechanically and by using trypsin. The cells collected after centrifugation were distributed into 96-well plates and left to stand for 5 days. The culture conditions made it possible to obtain a cell layer composed of neurons (dopaminergic and others) and astrocytes. On the 6th day, the cells were optionally treated with MPP+ in the presence or absence of test compound. After 2 days of incubation, the cells were fixed and various cell labellings were carried out; staining of the nuclei with the Hoechst fluorescent label and immunolabelling of tyrosine hydroxylase. The cells expressing tyrosine hydroxylase were counted using an image analyzer coupled to an optical microscope.
Recombinant human BDNF trophic factor (10 ng/mL) was used as reference. The activities of the compounds are given as percentages of activity relative to the BDNF reference, the activity of which is arbitrarily defined as being equal to 100%.

NURR-1/RXRγ = target: T2, NURR-1/RXRγ (Homo sapiens, UniProt P48443); test: Transactivation test, NURR-1-Gal4/RXRγ, luciferase reporter in Cos-7 cells; type: cell-based; details: for Emax: COS-7, induction level relative to reference XCT0135908 at 2×10^−5 M (=100%), read-out: hNurr1_RXRgFL Emax (%); for EC50: Cos-7 cells, NURR-1-Gal4/RXRγ, luciferase reporter, read-out: hNurr1_RXRgFL EC50
T2 construct: expressed in transfected cells; host or cells: Cos-7 cells

[3] = Plasma pharmacokinetics in mice after oral administration; type: in vivo; details: mouse, male C57/Bl6 mice, oral 10 mg/kg; for AUC: sampling 15 min to 7 h, log-linear trapezoidal method, read-out: AUCplasma; for Cmax: suspension in 1% methylcellulose/0.1% Poloxamer 188
Method: as §1
1. Study of the Plasma Phannacokinectis in Mice After Oral Administration
Male C57/B16 mice (25-30 g) originating from the establishment Janvier, Le Genest-St-Isle, France were used for this study (9 mice per dose). The animals were fed with standard feed for rodents (Purina Mills, St. Louis, Mo.), placed in cages and subjected to light/darkness cycles of 12 h/12 h, the temperature of the room being maintained at 22±2° C. and the humidity level at 55±10%.
The mice were not deprived food before the administration. Water was provided at will throughout the study. The test compound was admistered orally at 10 mg/kg. For the oral administration at 10 mg/kg, the animals were green, by gavage, 10 mL/kg of a suspension of the test compound, prepared in 1% methylcellulose, 400 cps/0.1% Poloxamer 188/water.
The animals were sacrificed under anesthesia at times 15 min, 30 min, 1 h, 3 h and 7 h after gavage. The blood was collected at each time, and from each animal sacrificed 0.5 mL of blood collected in 1.5 mL tubes containing 20 μL of evaporated anticoagulant (solution of sodium heparinate at 1000 IU/mL) was centrifuged at 4500 g for 3 min in order to obtain approximately 200 μL of plasma. The plasma was divided up into 2 aliquots of 70 μL minimum, which were stoted at −20° C. until they were treated by protein precipitation and then analysis by liquid chromatography coupled to tandem mass spectrometry (LC-MS/MS) in order to quantify the compound tested.
The pharmacokinetic plasma parameters in the mice after oral administration were determined using a non-compartmental approach with the Phoenix WinNonLin software. The area under the curve (AUC0-1) was determined bv the log-linear trapezoidal method. The tesults are brought together in the following table.

[4] = induction level relative to reference XCT0135908 at 2×10^−5 M (=100%)

T2 sequence (P48443 whole entry, the tested form may be a part): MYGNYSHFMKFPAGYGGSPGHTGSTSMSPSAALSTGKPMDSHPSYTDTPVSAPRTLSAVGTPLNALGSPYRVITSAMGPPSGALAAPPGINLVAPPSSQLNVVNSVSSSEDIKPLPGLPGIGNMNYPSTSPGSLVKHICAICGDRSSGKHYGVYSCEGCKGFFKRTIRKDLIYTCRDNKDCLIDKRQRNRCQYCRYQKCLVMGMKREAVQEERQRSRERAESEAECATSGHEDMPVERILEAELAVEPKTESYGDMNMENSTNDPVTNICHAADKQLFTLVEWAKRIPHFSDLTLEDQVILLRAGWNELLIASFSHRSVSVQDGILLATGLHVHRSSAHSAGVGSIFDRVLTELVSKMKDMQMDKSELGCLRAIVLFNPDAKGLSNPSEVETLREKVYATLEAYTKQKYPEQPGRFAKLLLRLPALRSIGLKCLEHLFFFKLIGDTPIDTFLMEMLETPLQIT
T2 sequence (P43354 whole entry partner, the tested form may be a part): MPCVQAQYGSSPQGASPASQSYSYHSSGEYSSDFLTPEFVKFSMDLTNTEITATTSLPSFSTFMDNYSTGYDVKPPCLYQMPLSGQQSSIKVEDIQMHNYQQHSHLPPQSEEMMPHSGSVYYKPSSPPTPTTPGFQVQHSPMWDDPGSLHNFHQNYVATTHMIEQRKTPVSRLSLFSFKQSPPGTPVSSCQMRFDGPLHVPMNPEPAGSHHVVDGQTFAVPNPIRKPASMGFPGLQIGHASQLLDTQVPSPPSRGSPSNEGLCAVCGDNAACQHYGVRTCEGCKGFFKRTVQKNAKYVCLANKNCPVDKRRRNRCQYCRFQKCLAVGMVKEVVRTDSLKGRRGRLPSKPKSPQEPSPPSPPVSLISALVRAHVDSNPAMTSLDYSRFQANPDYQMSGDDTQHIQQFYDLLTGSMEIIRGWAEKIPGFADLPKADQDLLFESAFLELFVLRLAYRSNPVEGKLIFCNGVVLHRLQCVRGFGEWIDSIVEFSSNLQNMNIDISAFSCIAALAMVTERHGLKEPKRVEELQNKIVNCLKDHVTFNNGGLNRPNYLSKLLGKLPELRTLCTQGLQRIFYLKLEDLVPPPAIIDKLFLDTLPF
T2 sequence (P04386 1-147 partner limits assumed): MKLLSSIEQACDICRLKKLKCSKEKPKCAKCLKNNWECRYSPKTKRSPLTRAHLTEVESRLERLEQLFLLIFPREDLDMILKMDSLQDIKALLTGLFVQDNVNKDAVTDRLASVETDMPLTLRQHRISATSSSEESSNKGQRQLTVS
T1 sequence (P19793 whole entry, the tested form may be a part): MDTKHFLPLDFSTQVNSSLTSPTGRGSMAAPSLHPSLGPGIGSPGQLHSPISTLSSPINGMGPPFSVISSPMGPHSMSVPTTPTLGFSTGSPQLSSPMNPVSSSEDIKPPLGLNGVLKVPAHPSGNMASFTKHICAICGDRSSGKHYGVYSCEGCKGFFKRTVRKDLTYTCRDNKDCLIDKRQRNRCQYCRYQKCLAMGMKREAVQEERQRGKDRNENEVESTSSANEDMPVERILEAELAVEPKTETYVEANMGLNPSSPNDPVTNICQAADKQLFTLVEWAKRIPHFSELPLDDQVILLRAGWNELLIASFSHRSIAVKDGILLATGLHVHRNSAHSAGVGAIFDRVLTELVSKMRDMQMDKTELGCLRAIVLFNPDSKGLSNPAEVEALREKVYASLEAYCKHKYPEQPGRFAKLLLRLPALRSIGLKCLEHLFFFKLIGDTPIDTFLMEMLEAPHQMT
T1 sequence (P43354 whole entry partner, the tested form may be a part): as the sequence (P43354 whole entry partner, the tested form may be a part) above
T1 sequence (P04386 1-147 partner limits assumed): as the sequence (P04386 1-147 partner limits assumed) above

| Structure (SMILES) | Emax (NURR-1/RXRα) | EC50 (NURR-1/RXRα) | Kp at 4 h [1] | Cmax at 4 h [1] | percentage of activity relative to the BDNF reference ([2]; compound 1 μM) | percentage of activity relative to the BDNF reference ([2]; compound 10 μM) | Emax (NURR-1/RXRγ) | EC50 (NURR-1/RXRγ) | AUC [3] | Cmax [3] | melting point | hNurr1_RXRaFL Emax (%) (NURR-1/RXRα; [4]) | hNurr1_RXRgFL Emax (%) (NURR-1/RXRγ; [4]) |
| --- | --- | --- | --- | --- | --- | --- | --- | --- | --- | --- | --- | --- | --- |
| O=C(O)C1CN(c2cccc(-c3cc(C(F)(F)F)ccc3OCCc3cccs3)c2)C1 [Example 100, 1-[3-[2-[2-(2-thienyl)ethoxy]-5-(trifluoromethyl)phenyl]phenyl]azetidine-3-carboxylic acid] | 63% | 0.014 µM | 0.75 | 6070 ng/mL | 100% | 106% | 63% | 0.024 µM | 56600 ng·h/mL | 11200 ng/mL |  |  |  |
| O=C(O)C1CN(c2cccc(N3c4ccc(C(F)(F)F)cc4CC3Cc3ccccc3)c2)C1 (centres unmarked) [Example 147, 1-[3-[2-benzyl-5-(trifluoromethyl)indolin-1-yl]phenyl]azetidine-3 carboxylic acid] | 68% | 0.044 µM | 0.12 | 7910 ng/mL | 53% | 104% | 50% | 0.087 µM | 143000 ng·h/mL | 33000 ng/mL |  |  |  |
| CN(C)Cc1cn(-c2cccc(N3CC(C(=O)O)C3)c2)c2ccc(C(F)(F)F)cc12 [Example 130, 1-[3-[3-(dimethylaminomethyl)-5-(trifluoromethyl)indol-1-yl]phenyl]azetidine-3-carboxylic acid] | 113% | 0.246 µM | 0.13 | 9010 ng/mL | 57% | 103% | 109% | 0.513 µM | 23000 ng·h/mL | 13800 ng/mL |  |  |  |
| O=C(O)C1CN(c2cccc(N3CCOc4cc(C(F)(F)F)ccc43)c2)C1 [Example 115, 1-[3-[7-(trifluoromethyl)-2,3-dihydro-1,4-benzoxazin-4-yl]phenyl]azetidine-3-carboxylic acid] | 114% | 0.058 µM | 0.22 | 10600 ng/mL | 103% | 77% | 129% | 0.022 µM | 51600 ng·h/mL | 24400 ng/mL |  |  |  |
| Cc1cc(-c2cc(C(C)(C)C)cc(C(C)(C)C)c2)cc(N2CC(C(=O)O)C2)c1 [Example 7, 1-[3-(3,5-di-tertbutylphenyl)-5-methylphenyl]azetidine-3-carboxylic acid] | 100% | 0.004 µM | 0.76 | 6750 ng/mL | 61% | 72% | 97% | 0.006 µM | 48600 ng·h/mL | 12800 ng/mL |  |  |  |
| CC(C)CC1Oc2cc(C(F)(F)F)ccc2N(c2cccc(N3CC(C(=O)O)C3)c2)C1=O (single isomer, unassigned; isomer 1) [Example 246-1, 1-[3-[2-isobutyl-3-oxo-7-(trifluoromethyl)-1,4-benzoxazin-4-yl]phenyl]azetidine-3-carboxylate acid, isomer 1] |  | 0.007 µM | 0.13 | 5800 ng/mL |  |  |  | 0.05 µM | 48200 ng·h/mL | 15200 ng/mL | 68 to 74 °C | 97% | 95% |
| CC1(C)CN(c2cccc(N3CC(C(N)=O)C3)c2)c2ccc(C(F)(F)F)cc2O1 [Example 273, 1-[3-[2,2-dimethyl-7-(trifluoromethyl)-3H-1,4-benzoxazin-4-yl]phenyl]azetidine-3-carboxamide] | 110% | 0.006 µM | 1.81 | 98 ng/mL |  |  | 123% | 0.012 µM | 372 ng·h/mL | 584 ng/mL | 100 °C |  |  |
| CC(C)c1cc2c(c(-c3cccc(N4CC(C(=O)O)C4)c3)c1)NCCC(C)(C)O2 [Example 200, 1-[3-(8-isopropyl-2,2-dimethyl-4,5-dihydro-3H-1,5-benzoxazepin-6-yl)phenyl]azetidine-3-carboxylic acid] | 95% | 0.127 µM | 0.19 | 1010 ng/mL |  |  | 78% | 0.244 µM | 2920 ng·h/mL | 3800 ng/mL | 74 to 79 °C |  |  |
| CC(C)c1cc2c(c(-c3cccc(N4CC(C(=O)O)C4)c3)c1)NCCC2 [Example 199, 1-[3-(6-isopropyl-1,2,3,4-tetrahydroquinolin-8-yl)phenyl]azetidine-3-carboxylic acid] | 103% | 0.024 µM | 0.28 | 4920 ng/mL |  |  | 117% | 0.095 µM | 19000 ng·h/mL | 17500 ng/mL | 77 to 79 °C |  |  |
| CCC1COc2cc(C(F)(F)F)cc(-c3cccc(N4CC(C(=O)O)C4)c3)c2N1 (centres unmarked) [Example 186, 1-[3-[3-ethyl-7-(trifluoromethyl)-3.4-dihydro-2H-1,4-benzoxazin-5-yl]phenyl]azetidine-3-carboxylic acid] | 102% | 0.003 µM | 0.15 | 932 ng/mL |  |  | 94% | 0.011 µM | 12100 ng·h/mL | 6420 ng/mL | 61 to 64 °C |  |  |
